Experimental data reported in patent publication US6444663B1, “Tricyclic compounds for the inhibition of the ICE/ced-3 protease family of enzymes” (Idun Pharmaceuticals, Inc., priority 1996, dated 2002).
pIC50, pKi: −log10 of the molar value.

Assays:
MCH-2 [1] = biological target: T1, MCH-2 (Homo sapiens, UniProt P55212); assay: Fluorescence enzyme assay, IC50 determination, Mch2; assay type: biochemical; settings: substrate Acetyl-Asp-Glu-Val-Asp-AMC, 30 min preincubation, room temperature
T1 sequence (P55212 24-179 limits assumed): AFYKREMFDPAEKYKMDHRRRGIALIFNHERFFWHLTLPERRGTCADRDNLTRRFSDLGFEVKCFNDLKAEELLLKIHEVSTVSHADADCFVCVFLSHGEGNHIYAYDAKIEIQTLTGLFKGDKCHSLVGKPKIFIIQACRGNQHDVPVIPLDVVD
T1 sequence (P55212 194-293 limits assumed): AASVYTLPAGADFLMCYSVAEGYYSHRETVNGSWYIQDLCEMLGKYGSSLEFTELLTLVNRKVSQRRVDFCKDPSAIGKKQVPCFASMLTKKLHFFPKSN
Procedure: (§1) Fluorescence enzyme assays detecting the activity of the compounds of Formula 1 utilizing the recombinant ICE and CPP32 enzymes were performed essentially according to Thornberry et al. (Nature, 356:768:774 (1992)) and Nicholson et al. (Nature, 376:37-43 (1995)) respectively, (herein incorporated by reference) in 96 well microtiter plates. The substrate is Acetyl-Tyr-Val-Ala-Asp-amino-4-methylcoumarin (AMC) for the ICE assay and Acetyl-Asp-Glu-Val-Asp-amino-4-methylcoumarin for the CPP32, Mch2, Mch3 and Mch5 assays. Enzyme reactions were run in ICE buffer (25 mM HEPES, 1 mM EDTA, 0.1% CHAPS, 10% sucrose, pH 7.5) containing 2 mM DTT at room temperature in duplicate. The assays were performed by mixing the following components:
(§2) 50 μL ICE, Mch2, Mch5, CPP32 (18.8, 38, 8.1 and 0.153 nM concentrations, respectively) or Mch3 (1 unit) enzyme in ICE buffer containing either 8.0 (ICE, Mch2, Mch3, CPP32) or 20 (Mch5) mM DTT;
(§3) 50 μL compound of Formula 1 or ICE buffer (control); and
(§4) 100 μL of 20 μM substrate.
(§5) The enzyme and the compound of Formula 1 to be assayed were allowed to preincubate in the microtitre plate wells for 30 minutes at room temperature prior to the addition of substrate to initiate the reaction. Fluorescent AMC product formation was monitored for one hour at room temperature by measuring the fluorescence emission at 460 nm using an excitation wavelength of 360 nm. The fluorescence change in duplicate (control) wells were averaged and the mean values were plotted as a function of inhibitor concentration to determine the inhibitor concentration producing 50% inhibition (IC50).
(§6) The reference compound for this assay was Cbz-ValAlaAsp-H and the values are denoted in Table 1 as “Reference”.

MCH-3 = biological target: T2, MCH-3 (Homo sapiens, UniProt P55210); assay: Fluorescence enzyme assay, IC50 determination, Mch3; assay type: biochemical; settings: substrate Acetyl-Asp-Glu-Val-Asp-AMC, 30 min preincubation, room temperature
T2 sequence (P55210 24-198 limits assumed): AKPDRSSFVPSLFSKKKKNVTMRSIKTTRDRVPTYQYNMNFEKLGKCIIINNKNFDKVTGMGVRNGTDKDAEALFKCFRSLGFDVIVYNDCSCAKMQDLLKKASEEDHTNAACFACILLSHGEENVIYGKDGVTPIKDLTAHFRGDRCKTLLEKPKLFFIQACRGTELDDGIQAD
T2 sequence (P55210 207-303 limits assumed): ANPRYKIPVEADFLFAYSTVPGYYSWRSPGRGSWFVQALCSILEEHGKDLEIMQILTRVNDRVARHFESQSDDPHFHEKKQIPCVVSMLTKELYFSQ
Procedure: as §1, §2, §3, §4, §5, §6

CPP32 [2] = biological target: T3, CPP32 (Homo sapiens, UniProt P42574); assay: Fluorescence enzyme assay, IC50 determination, CPP32; assay type: biochemical; settings: recombinant enzyme, substrate Acetyl-Asp-Glu-Val-Asp-AMC, 30 min preincubation, room temperature
T3 sequence (P42574 29-175 limits assumed): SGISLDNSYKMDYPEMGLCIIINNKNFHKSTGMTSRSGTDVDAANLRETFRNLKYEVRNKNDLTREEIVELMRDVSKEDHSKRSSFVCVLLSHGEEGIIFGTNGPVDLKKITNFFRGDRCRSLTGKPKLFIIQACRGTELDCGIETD
T3 sequence (P42574 176-277 limits assumed): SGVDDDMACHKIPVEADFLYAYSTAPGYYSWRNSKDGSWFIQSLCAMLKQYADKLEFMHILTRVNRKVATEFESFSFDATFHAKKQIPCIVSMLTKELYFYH
Procedure: as §1, §2, §3, §4, §5, §6

mICE [3] = biological target: T4, mICE (Mus musculus, UniProt P29452); assay: Fluorescence enzyme assay, IC50 determination, ICE; assay type: biochemical; settings: recombinant enzyme, substrate Acetyl-Tyr-Val-Ala-Asp-AMC, 30 min preincubation, room temperature
T4 sequence (P29452 123-296 limits assumed): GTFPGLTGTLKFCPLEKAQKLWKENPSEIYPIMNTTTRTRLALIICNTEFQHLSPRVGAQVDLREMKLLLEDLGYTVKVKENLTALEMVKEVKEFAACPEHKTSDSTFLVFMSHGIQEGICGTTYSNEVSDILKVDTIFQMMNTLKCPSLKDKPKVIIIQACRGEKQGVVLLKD
T4 sequence (P29452 315-402 limits assumed): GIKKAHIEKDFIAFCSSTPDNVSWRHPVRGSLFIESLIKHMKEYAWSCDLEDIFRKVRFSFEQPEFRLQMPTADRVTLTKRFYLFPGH
Procedure: as §1, §2, §3, §4, §5, §6

MCH-5 [4] = biological target: T5, MCH-5 (Homo sapiens, UniProt Q14790); assay: Fluorescence enzyme assay, IC50 determination, Mch5; assay type: biochemical; settings: substrate Acetyl-Asp-Glu-Val-Asp-AMC, 30 min preincubation, room temperature
Procedure: as §1, §2, §3, §4, §5, §6

MCH-5 [5] = biological target: T5, MCH-5; assay: Continuous assay for Ki and k3 of irreversible inhibitors, Mch5; assay type: biochemical
Excerpt: (§7) B. Determination of the dissociation constant Ki and irreversible rate constant k3 for irreversible inhibitors
(§8) For the irreversible inhibition of a ICE/ced-3 Family Protease enzyme with a competitive irreversible inhibitor; using the model represented by the following formulas: [drawing 14]
(§9) The product formation at time t may be expressed as: [formula]
(§10) where E, I, EI and E-I denote the active enzyme, inhibitor, non-covalent enzyme-inhibitor complex and covalent enzyme-inhibitor adduct, respectively. The Ki value is the overall dissociation constant of the reversible binding steps, and k3 is the irreversible rate constant. The [S] and Ks values are the substate concentration and dissociation constant of the substrate bound to the enzyme, respectively. [E]^T is the total enzyme concentration.
(§11) The above equations were used to determine the Ki and k3 values of a given inhibitor bound to a ICE/ced-3 family protease. Thus, a continuous assay was run for sixty minutes at various concentrations of the inhibitor and the substrate. The assay was formulated essentially the same as described above for generating the data in Table 1, except that the reaction was initiated by adding the enzyme to the substrate-inhibitor mixture. […]

mICE [6] = biological target: T4, mICE; assay: Continuous assay for Ki and k3 of irreversible inhibitors, ICE; assay type: biochemical
Excerpt: as §7, §8, §9, §10, §11

MCH-2 [7] = biological target: T1, MCH-2; assay: Continuous assay for Ki and k3 of irreversible inhibitors, Mch2; assay type: biochemical
Excerpt: as §7, §8, §9, §10, §11

CPP32 [8] = biological target: T3, CPP32; assay: Continuous assay for Ki and k3 of irreversible inhibitors, CPP32; assay type: biochemical
Excerpt: as §7, §8, §9, §10, §11

[9] = continuous assay 60 min, reaction initiated by adding enzyme

T5 sequence (Q14790 217-374 limits assumed, species assumed): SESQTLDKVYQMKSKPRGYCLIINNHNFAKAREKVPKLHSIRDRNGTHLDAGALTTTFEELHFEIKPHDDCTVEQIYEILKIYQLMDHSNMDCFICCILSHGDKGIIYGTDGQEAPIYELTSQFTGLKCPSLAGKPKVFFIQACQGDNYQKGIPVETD
T5 sequence (Q14790 385-479 limits assumed, species assumed): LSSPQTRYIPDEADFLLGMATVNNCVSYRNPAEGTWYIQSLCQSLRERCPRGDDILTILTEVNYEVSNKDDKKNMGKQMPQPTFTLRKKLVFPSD

SMILES	pIC50 (MCH-2 [1])	pIC50 (MCH-3)	melting point	pIC50 (CPP32 [2])	pIC50 (mICE [3])	pIC50 (MCH-5 [4])	k3/Ki (MCH-5 [5]; Example 31)	pKi (MCH-5 [5]; [9])	k3/Ki (mICE [6]; Example 31)	pKi (mICE [6]; [9])	k3/Ki (MCH-2 [7]; Example 31)	pKi (MCH-2 [7]; [9])	k3/Ki (CPP32 [8]; Example 31)	pKi (CPP32 [8]; [9])
CC(=O)N[C@@H](CC(=O)O)C(=O)N[C@H]1CCc2cccc3c2N(C1=O)[C@H](C(=O)N[C@H]1CC(=O)OC1O)C3 (stereo partly drawn) [Example 7]	5.19	6.84	160 to 175 °C (dec.)	8.85	6.16	5.68								
O=C1C[C@H](NC(=O)[C@@H]2Cc3cccc4c3N2C(=O)[C@@H](NC(=O)c2ccccc2)CC4)C(O)O1 (stereo partly drawn) [Example 25]	< 4.30	< 4.30	204 to 205 °C (dec.)	5.06	6.80	5.33								
O=C1C[C@H](NC(=O)[C@@H]2Cc3cccc4c3N2C(=O)[C@@H](NC(=O)c2cccc3ccccc23)CC4)C(O)O1 (stereo partly drawn) [Example 22]	< 4.30	4.91	202 to 203 °C (dec.)	5.54	8.00	5.96								
O=C(O)C[C@H](NC(=O)OCc1ccccc1)C(=O)N[C@H]1CCc2cccc3c2N(C1=O)[C@H](C(=O)N[C@H]1CC(=O)OC1O)C3 (stereo partly drawn) [Example 13]		7.08	140 to 144 °C (dec.)	9.28	7.02	5.92								
O=C1CC(NC(=O)C2CCc3cccc4c3N2C(=O)C(NC(=O)OCc2ccccc2)CC4)C(O)O1 (mixture of isomers) [Example 28, (3R,S-cis)-6-Benzyloxycarbonylamino-5-oxo-2,3,4,5,6,7,8-hexahydro-1H-azepino[3,2,1-hi]quinoline-3-carbonyl)-amino]-4-oxo-butanoic acid]	4.49	5.95	120 to 123 °C (dec.)	6.36	7.59	5.69								
O=C(O)CC(NC(=O)[C@@H]1Cc2cccc3c2N1C(=O)[C@@H](NC(=O)OCc1ccccc1)CC3)C(=O)CF (stereo partly drawn) [Example 31]							98000 M⁻¹ s⁻¹	7.66	1.2e+07 M⁻¹ s⁻¹	9.30	25000 M⁻¹ s⁻¹	7.48	960000 M⁻¹ s⁻¹	7.92
O=C(O)C[C@H](NC(=O)[C@@H]1Cc2cccc3c2N1C(=O)[C@@H](NC(=O)OCc1ccccc1)CC3)C(=O)COP(=O)(c1ccccc1)c1ccccc1 [Example 34, 3-[(2S-cis)-[5-Benzyloxycarbonylamino-1,2,3,4,5,6,7-hexahydro-4-oxoazapino[3,2,1-hi]indole-2-carbonyl]amino]5-(diphenylphosphinyl) oxy-4-oxo-pentanoic acid]			109 to 111 °C (dec.)											
O=C(O)CCC(=O)N[C@H]1CCc2cccc3c2N(C1=O)[C@H](C(=O)N[C@H]1CC(=O)OC1O)C3 (stereo partly drawn) [Example 10]	5.74	5.55	145 to 160 °C (dec.)	6.61	6.24	5.10								
CC(C)(C)OC(=O)C[C@@H](/C=N/NC(N)=O)NC(=O)[C@@H]1Cc2cccc3c2N1C(=O)[C@@H](NC(=O)c1cccc2ccccc12)CC3 [Example 20]			103 to 105 °C (dec.)											
CC(=O)N[C@H]1CCc2cccc3c2N(C1=O)[C@H](C(=O)N[C@H]1CC(=O)OC1O)C3 (stereo partly drawn) [Example 19]	< 5.00	< 4.30	210 to 215 °C (dec.)	5.41	5.51	< 4.30								
O=C1C[C@H](NC(=O)[C@@H]2Cc3cccc4c3N2C(=O)[C@@H](NC(=O)OCc2ccccc2)CC4)C(O)O1 (stereo partly drawn) [Example 3]	4.40	5.16	101 to 104 °C	5.99	7.72	< 5.00								
O=C(CCc1ccccc1)N[C@H]1CCc2cccc3c2N(C1=O)[C@H](C(=O)N[C@H]1CC(=O)OC1O)C3 (stereo partly drawn) [Example 16]	< 5.00	4.49	78 to 81 °C	6.11	7.35	4.73								
